Assay results from ChEMBL document CHEMBL1129233, “1,3-diaryl-2-carboxyindoles as potent non-peptide endothelin antagonists” (Bioorg Med Chem Lett, 1996).
pIC50: −log10 of the molar value. Where “and” joins values, the source holds several entries; their conditions need not be identical. Identical values can stand only once.

Legend:
[1] = target: T1, Endothelin receptor type B (Homo sapiens, UniProt P24530); assay: Inhibitory concentration against Endothelin B receptor expressed in CHO-K1 cells; format: cell-based
T1 sequence (P24530 whole entry): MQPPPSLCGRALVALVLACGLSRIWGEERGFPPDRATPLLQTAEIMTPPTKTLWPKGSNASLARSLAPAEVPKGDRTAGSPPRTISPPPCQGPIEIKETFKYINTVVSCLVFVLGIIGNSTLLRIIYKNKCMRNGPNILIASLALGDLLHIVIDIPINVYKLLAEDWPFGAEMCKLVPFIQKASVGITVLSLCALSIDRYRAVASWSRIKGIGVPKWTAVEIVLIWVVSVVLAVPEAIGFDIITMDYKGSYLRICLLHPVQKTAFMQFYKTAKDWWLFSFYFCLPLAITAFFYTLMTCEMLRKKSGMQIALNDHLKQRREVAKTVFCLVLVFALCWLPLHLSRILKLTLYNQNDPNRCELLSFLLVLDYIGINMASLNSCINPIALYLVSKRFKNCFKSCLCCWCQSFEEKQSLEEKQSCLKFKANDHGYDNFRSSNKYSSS

[2] = target: T2, Endothelin-1 receptor (Homo sapiens, UniProt P25101); assay: Inhibitory concentration to the endothelin A receptor expressed in LtK cells; format: cell-based
T2 sequence (P25101 whole entry): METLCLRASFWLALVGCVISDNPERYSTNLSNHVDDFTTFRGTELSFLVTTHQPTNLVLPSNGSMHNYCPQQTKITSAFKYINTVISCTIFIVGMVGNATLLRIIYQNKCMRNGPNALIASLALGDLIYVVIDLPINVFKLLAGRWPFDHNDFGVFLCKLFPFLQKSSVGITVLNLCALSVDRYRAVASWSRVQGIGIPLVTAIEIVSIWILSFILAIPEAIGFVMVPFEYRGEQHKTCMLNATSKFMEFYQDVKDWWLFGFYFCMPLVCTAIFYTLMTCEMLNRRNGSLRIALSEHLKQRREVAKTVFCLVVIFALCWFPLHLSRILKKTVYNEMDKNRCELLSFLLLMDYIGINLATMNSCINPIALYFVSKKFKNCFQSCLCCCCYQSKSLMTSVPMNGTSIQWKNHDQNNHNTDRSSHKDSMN

[3] = target: T3, Endothelin receptor type B (Rattus norvegicus, UniProt P21451); assay: Compound was evaluated for binding affinity against rat Endothelin B receptor; inactive
T3 sequence (P21451 whole entry): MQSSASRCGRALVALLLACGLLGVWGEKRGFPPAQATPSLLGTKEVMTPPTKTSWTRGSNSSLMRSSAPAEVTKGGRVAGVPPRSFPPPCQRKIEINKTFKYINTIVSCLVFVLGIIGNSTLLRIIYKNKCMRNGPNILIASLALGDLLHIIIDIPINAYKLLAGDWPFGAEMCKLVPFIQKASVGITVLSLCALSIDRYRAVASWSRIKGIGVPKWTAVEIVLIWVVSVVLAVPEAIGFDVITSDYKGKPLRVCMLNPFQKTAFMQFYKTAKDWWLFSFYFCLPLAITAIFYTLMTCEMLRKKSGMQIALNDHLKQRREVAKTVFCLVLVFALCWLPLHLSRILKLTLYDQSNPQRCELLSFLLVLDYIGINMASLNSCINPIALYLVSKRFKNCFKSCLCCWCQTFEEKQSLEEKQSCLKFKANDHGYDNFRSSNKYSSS

[4] = target: T1, Endothelin receptor type B; assay: Compound was evaluated for binding affinity against human Endothelin B receptor
[5] = target: Endothelin-1 receptor (Oryctolagus cuniculus); assay: Compound was evaluated for binding affinity against rabbit Endothelin A receptor
[6] = species: Oryctolagus cuniculus; assay: Inhibition of arachidonic acid release (AAR-B) in rabbit renal artery vascular smooth muscle cells (ETA) upon stimulation with ET-1; format: functional
[7] = species: Oryctolagus cuniculus; assay: Ability to inhibit the release of arachidonic acid in rabbit renal artery vascular smooth muscle cells (ETA) upon stimulation with ET-1; format: functional

SMILES | pIC50 [1] | pIC50 [2] | also measured
O=C(O)c1c(-c2ccc3c(c2)OCO3)c2ccccc2n1-c1ccc2c(c1)OCO2 | 4.66 | 5.39 | –
COc1ccc(-c2c(C(=O)O)n(-c3ccc4c(c3)OCO4)c3ccc(OC)cc23)cc1 | < 4.60 | 5.96 | –
CC(C)Oc1c(C(=O)O)sc2ccc(OCc3ccccc3)cc12 | – | – | IC50 [3]: Not Active; pIC50 [4]: < 4.00; pIC50 [5]: 5.22
O=C(O)c1c(-c2ccc3c(c2)OCO3)c2cc(OCc3ccccc3)ccc2n1Cc1ccc2c(c1)OCO2 | 5.60 | 6.10 | –
O=C(O)c1c(-c2ccc3c(c2)OCO3)c2cc(Cl)ccc2n1-c1ccccc1 | < 4.60 | 5.00 | –
CCCOc1ccc2c(c1)c(-c1ccc3c(c1)OCO3)c(C(=O)O)n2-c1ccc2c(c1)OCO2 | 4.92 | 7.37 | –
COc1cc2c(-c3ccc4c(c3)OCO4)c(C(=O)O)n(Cc3ccc4c(c3)OCO4)c2cc1OC | – | 7.22 | –
COc1ccc(Cn2c(C(=O)O)c(-c3ccc4c(c3)OCO4)c3cc(OCc4ccccc4)ccc32)cc1 | 5.36 | 5.57 | –
O=C(O)c1c(-c2ccc3c(c2)OCO3)c2ccccc2n1Cc1ccccc1 | 4.84 | 4.96 | –
O=C(O)c1c(-c2ccc3c(c2)OCO3)c2cc(OCc3ccccc3)ccc2n1-c1ccc2c(c1)OCO2 | 4.85 | 5.89 | –
COc1ccc(-c2c(C(=O)O)n(-c3ccc4c(c3)OCO4)c3ccc(OCc4ccccc4)cc23)cc1 | 4.68 | 5.62 | –
COc1ccc(-n2c(C(=O)O)c(-c3ccc4c(c3)OCO4)c3cc(OC)ccc32)cc1 | < 4.60 | 5.46 | –
O=C(O)c1c(-c2ccc3c(c2)OCO3)c2cc3c(cc2n1Cc1ccc2c(c1)OCO2)OCO3 | 6.17 | 6.62 | –
COc1ccc2c(c1)c(-c1ccc(OC)c(OC)c1)c(C(=O)O)n2-c1ccc2c(c1)OCO2 | < 4.60 | 5.82 | –
O=C(O)c1c(-c2ccc3c(c2)OCO3)c2ccccc2n1Cc1ccc2c(c1)OCO2 | 5.48 | 5.82 | –
COc1ccc2c(c1)c(-c1ccc3c(c1)OCO3)c(C(=O)O)n2Cc1ccc2c(c1)OCO2 | 5.62 | 6.46 | –
COc1ccc2c(c1)c(-c1ccc3c(c1)OCO3)c(C(=O)O)n2-c1ccccc1 | < 4.60 | 4.92 | –
COc1cccc(-c2c(C(=O)O)n(-c3ccc4c(c3)OCO4)c3ccc(OC)cc23)c1 | < 4.60 | 5.26 | –
CCCOc1ccc2c(c1)c(-c1ccc3c(c1)OCO3)c(C(=O)O)n2Cc1ccc2c(c1)OCO2 | 5.96 and 6.07 | 6.89 and 7.10 | –
COc1ccc(-n2c(C(=O)O)c(-c3ccc4c(c3)OCO4)c3ccccc32)cc1 | < 4.60 | 5.64 | –
COc1ccc(-c2c(C(=O)O)n(Cc3ccc4c(c3)OCO4)c3cc(OC)c(OC)cc23)cc1OC | 6.07 | 7.22 | –
COc1cc2c(-c3ccc4c(c3)OCO4)c(C(=O)O)n(-c3ccc4c(c3)OCO4)c2cc1OC | 5.15 | 7.10 | –
COc1cc2c(-c3ccc4c(c3)OCO4)c(C(=O)O)n(Cc3ccc4c(c3)OCO4)c2cc1OCc1ccccc1 | 7.30 | 7.52 | pIC50 [6]: 6.64
CCCOc1ccc2c(-c3ccc4c(c3)OCO4)c(C(=O)O)n(Cc3ccc4c(c3)OCO4)c2c1 | 5.25 | 7.33 | pIC50 [7]: 6.32
COc1ccc2c(c1)c(-c1ccc3c(c1)OCO3)c(C(=O)O)n2-c1ccc2c(c1)OCO2 | 4.82 | 6.59 | –
COc1ccc2c(-c3ccc4c(c3)OCO4)c(C(=O)O)n(-c3ccccc3)c2c1 | < 4.60 | 5.13 | –
